Measurements from the RepoRT retention time repository (doi:10.1038/s41586-021-03707-9).

How the values were obtained:
[1] = RP, Waters ACQUITY UPLC HSS C18, 100 × 2.1 mm, 1.7 µm, 40 °C, 0.35 mL/min, estimated dead time 0.63 min; A: water + 0.1% formic acid; B: methanol + 0.1% formic acid; gradient (min/%B) 0/0.5 4/70 4.5/98 5.4/98; details: stereoisomer not certain
[2] = Waters ACQUITY UPLC BEH C18, 100 × 2.1 mm, 1.7 µm, 40 °C, 0.28 mL/min, estimated dead time 0.63 min; A: water + 6.5 mM ammonium hydroxide; B: methanol + 6.5 mM ammonium hydroxide; gradient (min/%B) 0/0.5 4/70 4.5/98 5.4/98; details: stereoisomer not certain

## OCC1OC(OCC2OC(OC3(CO)OC(CO)C(O)C3O)C(O)C(O)C2O)C(O)C(O)C1O (stereo unspecified)
[1]
  LC retention time: 0.835 min
[2]
  LC retention time: 1.05 min

## Cc1ccccc1C(=O)NCC(=O)O
[1]
  LC retention time: 3.56 min
[2]
  LC retention time: 2.74 min

## CCCCCCC(O)C(=O)O (stereo unspecified)
[1]
  LC retention time: 5.18 min
[2]
  LC retention time: 4.12 min

## OCCc1c[nH]c2ccccc12
[1]
  LC retention time: 4.22 min
[2]
  LC retention time: 4.36 min

## CC(=O)OC(CC(=O)[O-])C[N+](C)(C)C (stereo unspecified)
[1]
  LC retention time: 0.864 min
[2]
  LC retention time: 0.849 min

## NCCc1c[nH]c2ccc(O)cc12
[1]
  LC retention time: 1.9 min
[2]
  LC retention time: 2.35 min

## NC(=O)CCCCC1CCSS1 (stereo unspecified)
[1]
  LC retention time: 4.6 min
[2]
  LC retention time: 4.75 min

## O=C1NS(=O)(=O)c2ccccc21
[1]
  LC retention time: 2.66 min
[2]
  LC retention time: 2.3 min

## O=C(O)CN(CCO)CCO
[1]
  LC retention time: 0.765 min
[2]
  LC retention time: 0.874 min

## NC(N)=NCC(=O)O
[1]
  LC retention time: 0.759 min
[2]
  LC retention time: 0.801 min

## O=C(O)c1ccccn1
[1]
  LC retention time: 1.14 min
[2]
  LC retention time: 1.2 min

## OCC1OC(OC2C(CO)OC(OC3C(CO)OC(O)C(O)C3O)C(O)C2O)C(O)C(O)C1O (stereo unspecified)
[1]
  LC retention time: 0.847 min
[2]
  LC retention time: 0.851 min

## CC(=O)c1ccc(O)cc1O
[1]
  LC retention time: 4.09 min
[2]
  LC retention time: 3.05 min
